Source: US12540137B2, “N-1 branched alkyl ether substituted imidazo[4,5-c]quinoline compounds, compositions, and methods” (Solventum Intellectual Properties Company, priority 2018, dated 2026)
Read-outs that look alike come from different tables or passages of the source.

System: Human peripheral blood mononuclear cells (PBMC)
Experiment: Cytokine induction in human cells (PBMC)
Assay type: cell-based
Conditions: for minimal effective concentration / MEC to Induce Cytokine TNF-alpha: human PBMC, 21-24 hours culture, lowest concentration giving cytokine level at least 2× negative control
Method: Whole blood was obtained from healthy human donors and collected by venipuncture into vacutainer tubes or syringes containing EDTA. Human peripheral blood mononuclear cells (PBMC) were purified from the whole blood by density gradient centrifugation. Histopaque 1077 (15 mL, Sigma, St. Louis, MO) was transferred to 6×50 mL sterile polypropylene conical tubes. The Histopaque was overlayed with 15-25 mL of blood diluted 1:2 in Hank's Balanced Salts Solution (HBSS) (Gibco, Life Technologies, Grand Island, NY). The tubes were then centrifuged at 1370 rpm for 30 minutes at 20° C., with no brake (400×g, GH 3.8A Rotor).
The interface (buffy coat) containing the PBMC was collected and placed in a new sterile 50 ml conical polypropylene centrifuge tube. The PBMC were mixed with an equal volume of HBSS (about 20 mL from the interface and about 20 mL of HBSS), and then centrifuged at 1090 rpm, 10 minutes, 20° C., with brake (270×g, GH 3.8A Rotor). After completing centrifugation, the cells were resuspended in 2-3 mL ACK Red blood cell lysis buffer (ammonium chloride potassium solution, Gibco, Life Technologies) and incubated for 2-5 minutes at 20° C. Next, HBSS (40 mL) was added to the cells, and the sample was centrifuged at 270×g for 10 minutes at 20° C. The supernatant was decanted, and the cell pellet was resuspended in 5 mL AIM V Medium (Gibco, Life Technologies). Cell aggregates and debris were removed by filtering the cell solution through a BD Falcon 70 micron nylon cell strainer (BD Biosciences, San Jose, CA).
The number of viable cells was determined by counting with a Miltenyi FACS instrument (Miltenyi Biotec Inc., San Diego, CA) or by using a hemocytometer. For determining cell viability with a hemocytometer, the cells were diluted 1/10 in 0.4% trypan blue and HBSS (specifically, 50 microliter of trypan blue+40 microliter of HBSS+10 microliter of cell solution were added to a microfuge tube and mixed). Ten microliters of the diluted cells were then applied to the hemocytometer, and the number of viable PBMC were determined by microscopy.
The PBMC sample was then resuspended in 96-well plates at a concentration of 8×10^5 cells/well in 0.1 mL of AIM-V medium. Each compound was solubilized in dimethyl sulfoxide (DMSO) to create a 3 mM stock solution. The stock solution was then further diluted with AIM-V medium to prepare the serial dilutions. The diluted compound (100 microliters) was then transferred to the PBMCs to produce testing sets with final compound concentrations of either 30, 10, 3.3, 1.1, 0.37, 0.12, 0.04, 0.01 micromolar (testing set A); 30, 10, 3.3, 1.1, 0.37, 0.12, 0.04 micromolar (testing set B); 100, 33.3, 11.1, 3.7, 1.2, 0.4 micromolar (testing set C); or 3.0, 1.0, 0.33, 0.11, 0.037, 0.012, 0.004, 0.0014 micromolar (testing set D). The plates also had both positive and negative controls. The negative control wells contained only AIM-V medium with no example compound. The positive control wells contained a control set of imiquimod serially diluted to concentrations of either 30, 10, 3.3, 1.1, 0.37, 0.12, 0.04, 0.01 micromolar (control set A); 30, 10, 3.3, 1.1, 0.37, 0.12, 0.04 micromolar (control set B); 100, 33.3, 11.1, 3.7, 1.2, 0.4 micromolar (control set C); or 3.0, 1.0, 0.33, 0.11, 0.037, 0.012, 0.004, 0.0014 micromolar (control set D). The concentrations used in the control set were selected to match the concentrations used in the testing set. The plates were then cultured at 37° C./5% CO2 for 21-24 hours. Cell-free supernatants were harvested by centrifuging the 96-well plates at 2100 rpm, 23° C. for 10 minutes. Approximately 160 microliters of the supernatant were then stored in a NUNC 96-well plate, covered with the compression cap and stored at −80° C. until the cytokine analysis was done.
IFN-alpha cytokine levels (picograms/mL) were measured by ELISA (human IFN-alpha, pan specific, Mabtech, Cincinnati, OH). […]

[1] = ELISA, read-out: MEC to Induce Cytokine IFN-alpha
[2] = multiplex bead assay, read-out: MEC to Induce Cytokine IFN-gamma

Structure (SMILES) | minimal effective concentration [1] | MEC to Induce Cytokine TNF-alpha (multiplex bead assay) | minimal effective concentration [2] | activity toward cytokine production (statement in the description)
CCOC[C@H](C(C)C)n1cnc2c(N)nc3ccccc3c21 [Example 1, 1-[(1S)-1-(ethoxymethyl)-2-methyl-propyl]imidazo[4,5-c]quinolin-4-amine] | ≤ 0.04 µM | ≤0.04 µM | ≤ 0.04 µM | –
CCOC[C@H](n1cnc2c(N)nc3ccccc3c21)C(C)(C)C [Example 10, 1-[(1R)-1-(ethoxymethyl)-2,2-dimethyl-propyl]imidazo[4,5-c]quinolin-4-amine] | 3 µM | 3.0 µM | 3 µM | –
CCOC[C@@H](n1c(CC)nc2c(N)nc3ccccc3c21)C(C)(C)O [Example 8, (3R)-3-(4-amino-2-ethyl-imidazo[4,5-c]quinolin-1-yl)-4-ethoxy-2-methyl-butan-2-ol] | 10 µM | – | 3.3 µM | –
CCO[C@@H](C)[C@@H](n1cnc2c(N)nc3ccccc3c21)C(C)(C)O [Example 13, (3R,4S)-3-(4-aminoimidazo[4,5-c]quinolin-1-yl)-4-ethoxy-2-methyl-pentan-2-ol] | 3.3 µM | 10 µM | 10 µM | –
CCOC[C@@H](n1c(C)nc2c(N)nc3ccccc3c21)C(C)(C)O [Example 7, (3R)-3-(4-amino-2-methyl-imidazo[4,5-c]quinolin-1-yl)-4-ethoxy-2-methyl-butan-2-ol] | 0.12 µM | – | 0.37 µM | –
CCOC[C@@H](C(C)C)n1c(C)nc2c(N)nc3ccccc3c21 [Example 4, 1-[(1R)-1-(ethoxymethyl)-2-methyl-propyl]-2-methyl-imidazo[4,5-c]quinolin-4-amine] | 10 µM | 10 µM | > 30 µM | –
CCOC[C@@H](C(C)C)n1cnc2c(N)nc3ccccc3c21 [Example 2, 1-[(1R)-1-(ethoxymethyl)-2-methyl-propyl]imidazo[4,5-c]quinolin-4-amine] | 3.3 µM | 3.3 µM | > 30 µM | –
CCOC[C@@H](n1cnc2c(N)nc3ccccc3c21)C(C)(C)C [Example 9, 1-[(1S)-1-(ethoxymethyl)-2,2-dimethyl-propyl]imidazo[4,5-c]quinolin-4-amine] | 0.004 µM | 0.004 µM | 0.012 µM | –
CCOC[C@H](n1cnc2c(N)nc3ccccc3c21)C(C)(C)O [Example 6, (3S)-3-(4-aminoimidazo[4,5-c]quinolin-1-yl)-4-ethoxy-2-methyl-butan-2-ol] | > 100 µM | >100 µM | > 100 µM | inactive toward cytokine production
COC[C@@H](n1cnc2c(N)nc3ccccc3c21)C(C)(C)C [Example 11, 1-[(1S)-1-(methoxymethyl)-2,2-dimethyl-propyl]imidazo[4,5-c]quinolin-4-amine] | ≤ 0.4 µM | ≤0.4 µM | ≤ 0.4 µM | –
CCOC[C@@H](n1cnc2c(N)nc3ccccc3c21)C(O)(CC)CC [Example 12, (2R)-2-(4-aminoimidazo[4,5-c]quinolin-1-yl)-1-ethoxy-3-ethyl-pentan-3-ol] | 0.04 µM | – | 0.12 µM | –
CCOC[C@H](C(C)C)n1c(C)nc2c(N)nc3ccccc3c21 [Example 3, 1-[(1S)-1-(ethoxymethyl)-2-methyl-propyl]-2-methyl-imidazo[4,5-c]quinolin-4-amine] | 0.37 µM | 0.37 µM | 1.1 µM | –
CCOC[C@@H](n1cnc2c(N)nc3ccccc3c21)C(C)(C)O [Example 5, (3R)-3-(4-aminoimidazo[4,5-c]quinolin-1-yl)-4-ethoxy-2-methyl-butan-2-ol] | 0.12 µM | 0.04 µM | 0.12 µM | –
